{
  "source": "patent US20090098195A1",
  "about": "(priority 2004, published 2009)",
  "key": {"[1]": {"tested_on": "influenza virus A/PR/8/34 (H1N1)", "format": "cell-based", "details": "liposomes containing the peptide; egg PC concentration of 1 mM (peptide concentration: 0.15 mM); vs liposome without peptide"}, "[2]": {"format": "binding", "details": "6′GM3 monolayer, QCM"}, "[3]": {"format": "binding", "details": "GM3 monolayer, QCM"}, "[4]": {"format": "binding", "details": "GalCer monolayer, QCM"}, "[5]": {"format": "binding", "details": "LacCer monolayer, QCM"}, "[6]": {"format": "binding", "details": "QCM; data not shown"}},
  "note": "Values joined by “and” are separate entries in the source; they are usually repeats but may differ in a detail not shown here. Identical values can stand only once. Like-named read-outs stand apart in the source and are kept apart here.",
  "data": [
    {"substance": "ARLSPTMVHPRGAQP [A1 peptide, reference compound]", "values": [
      {"measurement": "percent inhibition of infection", "setting": "[1]", "value": 76, "unit": "%"}
    ]},
    {"substance": "RAVWRHSVATPSHSV [c03-peptide, H-RAVWRHSVATPSHSV-NH2]", "values": [
      {"measurement": "Kd", "setting": "[2]", "value": "7 ± 2.2", "unit": "µM"},
      {"measurement": "Δmmax (maximum binding amount)", "setting": "[2]", "value": "56 ± 3.1", "unit": "ng cm^−2"},
      {"measurement": "Kd", "setting": "[3]", "value": 0.34, "unit": "µM"},
      {"measurement": "Δmmax (maximum binding amount)", "setting": "[3]", "value": "11 ng cm^−2 and 11 ± 0.1 ng cm^−2"},
      {"measurement": "Δmmax (maximum binding amount)", "setting": "[4]", "value": "<3", "unit": "ng cm^−2"},
      {"measurement": "percent inhibition of infection", "setting": "[1]", "value": 94, "unit": "%"},
      {"measurement": "Kd", "setting": "[5]", "value": "5.9 ± 1.2", "unit": "µM"},
      {"measurement": "Δmmax (maximum binding amount)", "setting": "[5]", "value": "37 ± 1.8", "unit": "ng cm^−2"}
    ]},
    {"substance": "GWWYKGRARPVSAVA [c01-peptide, H-GWWYKGRARPVSAVA-NH2]", "values": [
      {"measurement": "Kd", "setting": "[2]", "value": "4 ± 1.1", "unit": "µM"},
      {"measurement": "Δmmax (maximum binding amount)", "setting": "[2]", "value": "93 ± 4.6", "unit": "ng cm^−2"},
      {"measurement": "Kd", "setting": "[3]", "value": 1.8, "unit": "µM"},
      {"measurement": "Δmmax (maximum binding amount)", "setting": "[3]", "value": "46 ng cm^−2 and 46 ± 2.4 ng cm^−2"},
      {"measurement": "Kd", "setting": "[4]", "value": "13 ± 3.3", "unit": "µM"},
      {"measurement": "Δmmax (maximum binding amount)", "setting": "[4]", "value": "64 ± 4.5", "unit": "ng cm^−2"},
      {"measurement": "percent inhibition of infection", "setting": "[1]", "value": 83, "unit": "%"},
      {"measurement": "Kd", "setting": "[5]", "value": "4.8 ± 1.6", "unit": "µM"},
      {"measurement": "Δmmax (maximum binding amount)", "setting": "[5]", "value": "74 ± 5.2", "unit": "ng cm^−2"}
    ]},
    {"substance": "H-AETVESCLAKPHTEN-NH2 [control peptide]", "values": [
      {"measurement": "binding to glycosphingolipids", "setting": "[6]", "value": "bound to none of the glycosphingolipids"}
    ]}
  ]
}
